Reference: patent US20150119352A1, “DINUCELOSIDE POLYPHOSPHATES FOR THE TREATMENT OF PAIN” (GlobalAcorn Ltd., priority 2012, published 2015)
“Also recorded” adds a separate entry of the source.

Target: T1, rat homomeric P2X4 receptors (Rattus norvegicus, UniProt P51577)
T1 construct: expressed in transfected cells
T1 sequence (P51577 1-388): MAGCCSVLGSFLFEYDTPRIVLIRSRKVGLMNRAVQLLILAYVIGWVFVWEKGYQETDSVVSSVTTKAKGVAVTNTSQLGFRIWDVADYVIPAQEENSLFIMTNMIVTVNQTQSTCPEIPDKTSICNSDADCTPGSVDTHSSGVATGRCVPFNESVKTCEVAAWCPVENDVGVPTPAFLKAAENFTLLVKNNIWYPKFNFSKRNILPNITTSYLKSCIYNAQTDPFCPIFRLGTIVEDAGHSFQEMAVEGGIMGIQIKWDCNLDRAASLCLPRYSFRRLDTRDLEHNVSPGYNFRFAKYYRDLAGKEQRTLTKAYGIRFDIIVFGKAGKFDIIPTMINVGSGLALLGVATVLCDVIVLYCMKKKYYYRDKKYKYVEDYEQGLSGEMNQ
Test: Whole-cell patch clamp, rat homomeric P2X4 receptors
Assay type: cell-based
Conditions: 1 μM; ATP
Description: FIG. 4. […] A. Example traces of responses induced by 10 μM ATP applied for 2 s every 2 min to HEK cells expressing rat homomeric P2X2 receptors in the presence and absence of 1 μM AppNHppA. B. Comparison of currents induced by the full agonist of P2X2 receptors, ATP, in the presence of 1 μM AppNHppA (right) and absence (left). C. The time course of the current in the presence and absence of 1 μM AppNHppA. D. Comparison of currents induced by the full agonist of rat homomeric P2X4 and P2X7 receptors, ATP, in the presence of 1 μM AppNHppA (right) and absence (left). Experiments were performed as in FIG. 2.
Trigeminal, nodose, DRG neurons or HEK cells were recorded in the whole-cell configuration while being continuously superfused (at 2 mL/min) with control solution containing (in mM): 152 NaCl, 5 KCl, 1 MgCl2, 2 CaCl2, 10 glucose, and 10 HEPES; pH was adjusted to 7.4 with NaOH and osmolarity was adjusted to 320 mOsM with glucose. […] Responses to selective P2X3 receptor agonist α,β-methylene-ATP (α,β-meATP; resistant to ectoATPase hydrolysis, Sigma-Aldrich) were measured using an EPC-9 amplifier and HEKA Patch Master software (HEKA Electronik, Germany). Cells were voltage-clamped at −70 mV. In most cells, series resistance was compensated by 80%. […]

## Nc1ncnc2c1ncn2[C@@H]1O[C@H](COP(=O)(O)OP(=O)(O)NP(=O)(O)OP(=O)(O)OC[C@H]2O[C@@H](n3cnc4c(N)ncnc43)C(O)C2O)C(O)C1O (stereo in doubt) [AppNHppA]
  effect on P2X4 receptor-mediated currents: not observed to produce any effects; also recorded: non-inhibitory effect
